Experimental data reported in paper PMC7970304, “The Effects of Apelin and Elabela Ligands on Apelin Receptor Distinct Signaling Profiles” (Frontiers in Pharmacology, 2021).

Experiments:
Assay type in all cases: cell-based
[1] = system: β-arrestin 2–AP2 interaction induced by APJ; test: BRET interaction of β-arrestin 2 and β2-adaptin (AP2) induced by APJ; details: for log (τ/KA) / Δlog (τ/KA): APJ-β-arrestin2-AP2; for log (τ/KA): Black–Leff operational model; for Δlog (τ/KA): relative to Apelin-13; for Bias factor / Log (Bias): APJ-β-arrestin2-AP2 over Ca2+, reference Apelin-13; for Log (Bias): footnote a = statistically insignificant
Protocol: (§1) To detect the potencies of different peptide ligands for APJ in living cells, real-time kinetic bioluminescence resonance energy transfer (BRET) assays were carried out as follows. HEK293 cells were grown to 80–90% confluence in 24-well plates and transiently transfected with various Rluc-, EYFP-, or Venus-tagged constructs ([Chen et al., 2014]; [Liu et al., 2016]). Approximately 36 h after transfection, the long-acting luciferase substrate EnduRen (E6481, Promega, Beijing Biotech Co., Ltd.) was added to each well at a final concentration of 60 μM and cells were incubated for 2 h at 37°C in a 5% CO2 incubator. BRET experiments were carried out using a Mithras LB941 plate reader (Berthold Technologies, Bad Wildbad, Germany) with three filters: a Rluc filter (400–475 nm), a Venus filter (515–575 nm) and an EGFP filter (500–550 nm) ([Liu et al., 2016]; [Ji et al., 2017]). The BRET ratio was calculated as the ratio of the emission at 535 ± 30 nm to that at 485 ± 20 nm. The results are expressed as the mBRET (mBRET = 1,000 × BRET ratio) ([Pfleger et al., 2006a]; [Pfleger et al., 2006b]). We use high glucose as a negative control group.
(§2) HEK293 cells were transiently co-transfected with the designated Rluc and GFP2 or Venus or EYFP-labeled constructs. Twenty-four hours after transfection, the cells were harvested in phenol red free medium containing 5% FCS in HEPES buffer and seeded in 96 well white microplate coated with poly-D-lysine. After 24 h, cells were washed twice in PBS and re-suspended in PBS containing 0.5 mM MgCl2 and 0.1% glucose. Coelenterazine h substrate was added at a final concentration of 5 μM in the total volume of 50 μL/well. Kinetic-response and dose-response curve of the recruitment of GRKs or β-arrestin 1 and β-arrestin 2 or AP2 to the APJ by six peptides measured by BRET. […] The BRET signals between receptor and GRKs/β-arrestin1 and 2/AP2 were recorded at 10 min (GRK2/5) or 15 min (β-arrestin1 and) or 30 min (AP2) after agonist stimulation. We use high glucose as a control group. BRET assays were performed as described previously ([Xue et al., 2018]). […] This signal is defined as the ligand induced BRET ratio.
(§3) The concentration-response data for the ligands in various assays were analyzed to determine the biases of the ligands for G protein dependent signaling or β-arrestin dependent signaling, according to a previously published method ([Kenakin et al., 2012]; [Hager et al., 2016]; [Hothersall et al., 2017]). Briefly, the concentration-response data for each ligand were fitted to the Black–Leff operation model to obtain the values of τ and K A, using the following equation: Response=[A]^nτ^nEm/[A]^nτ^n+([A]KA)^n where [A] is the concentration of the agonist, E m is the maximal response of the system, n is the transducer slope, and K A and τ describe the affinity and efficacy of the agonist, respectively. In the data fitting, the reparametrized form of the equation proposed by [Kenakin et al. (2012)] was used: Response=Em/1+exp{nln[1+exp(β1)/[A]]−nβ2} where β 1 and β 2 are the natural logarithm of K A and τ, respectively, and E m was set to 1. Thus, for each concentration-response curve, a non-linear regression was performed to fit the above equation to give β 1 and β 2 (as well as n). Log (τ/K A) values (“transduction coefficients”) for each ligand vs. each pathway were obtained. […] The ΔΔlog (τ/K A), or Log (Bias), which is the logarithm of the bias factor for a given pathway over a reference pathway (here, intracellular calcium release), was calculated for each ligand as Δlog (τ/K A)–Δlog (τ/K A)Calcium. The 95% confidence interval (CI) was expressed as the mean ± standard error; Log (Bias) values, whose 95% CI crosses 0, were considered statistically insignificant.
(§4) The data were analyzed using GraphPad Prism v5.0. All the data are presented as the mean ± SEM.

[2] = system: APJ (Apelin receptor); ERK1/2 phosphorylation; test: ERK1/2 activation assay, Western blot; details: for Bias factor / Log (Bias): WB-ERK over Ca2+, reference Apelin-13; for Log (Bias): footnote a = statistically insignificant; for log (τ/KA) / Δlog (τ/KA): WB-ERK; for log (τ/KA): Black–Leff operational model; for Δlog (τ/KA): relative to Apelin-13
Protocol: HEK293 cells expressing APJ were spilt into 6-well plates at a density of 10^5 cells per well and cultured until reaching approximately 90% confluence. The cells were treated with different concentrations of peptide ligands (0.01–1,000 nM). The cells were washed twice with Phosphate-buffered saline (PBS) and lyzed in RIPA lysis buffer (50 mm Tris–HCl, pH 7.41, 50 mM NaCl, 1 mM EDTA, 10 mM MgCl2, 1 mM DTT, 1 mM PMSF, 1 μg/ml […], […]), 1.4 μg/ml […] and 0.5% (v/v) NP-40). After centrifugation at 14,000 rpm at 4°C for 30 min, the supernatant was collected and separated by 10% SDS-PAGE. Gel transfer takes about 60 min at 250 mA. The nitrocellulose membrane was sealed with 5% skim milk dissolved in 0.1% Triton X-100 of PBS. The primary ERK1/2 antibody was diluted with 5% bovine serum albumin (BSA) at 1:2,000, and the second antibody was diluted with 1:5,000. The ECL reagent was applied to the membrane. The films were scanned by Vanoscan Lide 700F scanner and analyzed by scion image software. The dose-response curve was fitted using the data detected at 5 min after stimulation.
as §3
The data were analyzed using GraphPad Prism v5.0. All the data are presented as the mean ± SEM. Differences between groups were compared by one-way analysis of variants (ANOVA), followed by post-hoc tests (Tukey’s test), When p < 0.05, the difference was considered significant. All experiments were repeated at least four times. The dose-response curves were generated using non-linear fitting model log (agonist) vs. response (three-parameters), with Hill Slope held to 1, i.e., Y = Bottom + (Top-Bottom)/(1 + 10^(LogEC50-X)).
FIGURE 4 Changes of ERK1/2 phosphorylation in HEK293 cells with stable expression of APJ: (A–F) after 5-min stimulation by the six agonists in different concentrations (0.01–1,000 nM) (G and H) ERK was measured after 5 or 15 min stimulation with six peptides at a concentration of 100 nM. Levels of p-ERK, total ERK were determined by Western blot. The data represent means ± SEM of four independent experiments.

[3] = system: β-arrestin 1–AP2 interaction induced by APJ; test: BRET interaction of β-arrestin 1 and β2-adaptin (AP2) induced by APJ; details: for log (τ/KA) / Δlog (τ/KA): APJ-β-arrestin1-AP2; for log (τ/KA): Black–Leff operational model; for Δlog (τ/KA): relative to Apelin-13; for Bias factor / Log (Bias): APJ-β-arrestin1-AP2 over Ca2+, reference Apelin-13; for Log (Bias): footnote a = statistically insignificant
Protocol: as §1, §2, §3, §4

Structure (SMILES): CSCC[C@H](NC(=O)[C@@H]1CSSC[C@H](NC(=O)[C@H](CC(N)=O)NC(=O)[C@H](Cc2c[nH]cn2)NC(=O)[C@H](CCCCN)NC(=O)[C@H](CCCNC(=N)N)NC(=O)[C@@H](N)CC(C)C)C(=O)N[C@@H](CC(C)C)C(=O)N[C@@H](CCC(N)=O)C(=O)N[C@@H](CCCNC(=N)N)C(=O)N[C@@H](CCCNC(=N)N)C(=O)N1)C(=O)N1CCC[C@H]1C(=O)N[C@@H](CC(C)C)C(=O)N[C@@H](Cc1c[nH]cn1)C(=O)N[C@@H](CO)C(=O)N[C@@H](CCCNC(=N)N)C(=O)N[C@H](C(=O)N1CCC[C@H]1C(=O)N[C@@H](Cc1ccccc1)C(=O)N1CCC[C@H]1C(=O)O)C(C)C [Elabela-21]
- log (τ/KA) [1]: −2.1 ± 0.4
- Δlog (τ/KA) [1]: −1.9 ± 0.5
- Bias factor [1]: 0.5
- Log (Bias) [1]: −0.3 ± 0.6 ^a
- ERK1/2 phosphorylation (in words) ([2]; 100 nM, 15 min): significantly higher than the activation of ERK1/2 by the other ligands
- bias over calcium release ([2]; ERK pathway): 0.1 fold
- Bias factor [2]: 0.1
- Log (Bias) [2]: −1.0 ± 0.3
- log (τ/KA) [2]: −2.5 ± 0.2
- Δlog (τ/KA) [2]: −2.6 ± 0.2
- log (τ/KA) [3]: −1.9 ± 0.1
- Δlog (τ/KA) [3]: −0.5 ± 0.2
- Bias factor [3]: 13.2
- Log (Bias) [3]: 1.1 ± 0.3

Structure (SMILES): CSCC[C@H](NC(=O)[C@@H](NC(=O)[C@H](CC(C)C)NC(=O)[C@H](CC(N)=O)NC(=O)[C@@H](NC(=O)[C@@H]1CCCN1C(=O)[C@H](CCCNC(=N)N)NC(=O)[C@@H](N)CCC(N)=O)C(C)C)[C@@H](C)O)C(=O)N[C@@H](CCCNC(=N)N)C(=O)N[C@@H](CCCNC(=N)N)C(=O)N[C@@H](CCCCN)C(=O)N[C@@H](CC(C)C)C(=O)N[C@@H](CCCNC(=N)N)C(=O)N[C@@H](CCCCN)C(=O)N[C@@H](Cc1c[nH]cn1)C(=O)N[C@@H](CC(N)=O)C(=O)N[C@H]1CSSC[C@@H](C(=O)N[C@@H](CCSC)C(=O)N2CCC[C@H]2C(=O)N[C@@H](CC(C)C)C(=O)N[C@@H](Cc2c[nH]cn2)C(=O)N[C@@H](CO)C(=O)N[C@@H](CCCNC(=N)N)C(=O)N[C@H](C(=O)N2CCC[C@H]2C(=O)N[C@@H](Cc2ccccc2)C(=O)N2CCC[C@H]2C(=O)O)C(C)C)NC(=O)[C@H](CCCNC(=N)N)NC(=O)[C@H](CCCNC(=N)N)NC(=O)[C@H](CCC(N)=O)NC(=O)[C@H](CC(C)C)NC1=O [Elabela-32]
- log (τ/KA) [1]: −2.0 ± 0.4
- Δlog (τ/KA) [1]: −1.8 ± 0.5
- Bias factor [1]: 1.1
- Log (Bias) [1]: 0.0 ± 0.6 ^a
- Bias factor [2]: 3.0
- Log (Bias) [2]: 0.5 ± 0.3
- log (τ/KA) [2]: −1.3 ± 0.2
- Δlog (τ/KA) [2]: −1.4 ± 0.2
- log (τ/KA) [3]: −0.1 ± 0.1
- Δlog (τ/KA) [3]: 1.3 ± 0.2
- Bias factor [3]: 1,580.1
- Log (Bias) [3]: 3.2
- Log (Bias) ([3]; listed as ELA-32): 3.2 ± 0.3
- bias over calcium release ([3]; β-arrestin 1–AP2): > 1,500 fold
